# Results taken from patent US8278304B2, “Substituted 4-hydroxypyrimidine-5-carboxamides” (Merck Sharp & Dohme Corp., priority 2008, dated 2012).
# Biological target: T1, PHD2 (Homo sapiens, UniProt Q9GZT9)
# T1 construct: FLAG-tagged full length PHD2 expressed in and purified from baculovirus-infected Sf9 cells; FLAG; made in house; host or cells: baculovirus-infected Sf9 cells
# Assay: PHD2 / HIF-1α peptide hydroxylation assay, time resolved fluorescence (VHL complex detection)
# Assay type: biochemical
# Settings: FLAG-tagged full length PHD2; 0.2 μM 2-oxoglutarate, 0.5 μM HIF-1α peptide; read-out: PHD2 Activity (PHD2 binding activity expressed as IC50 (nM))
# Experimental: To each well of a 96-well plate was added 1 μL of test compound in DMSO and 20 μl of assay buffer (50 mM Tris pH 7.4/0.01% Tween-20/0.1 mg/ml bovine serum albumin/10 μM ferrous sulfate/1 mM sodium ascorbate/20 μg/ml catalase) containing 0.15 μg/ml FLAG-tagged full length PHD2 expressed in and purified from baculovirus-infected Sf9 cells. After a 30 min preincubation at room temperature, the enzymatic reactions were initiated by the addition of 4 μL of substrates (final concentrations of 0.2 μM 2-oxoglutarate and 0.5 μM HIF-1α peptide biotinyl-[…]).
# T1 sequence (Q9GZT9 whole entry): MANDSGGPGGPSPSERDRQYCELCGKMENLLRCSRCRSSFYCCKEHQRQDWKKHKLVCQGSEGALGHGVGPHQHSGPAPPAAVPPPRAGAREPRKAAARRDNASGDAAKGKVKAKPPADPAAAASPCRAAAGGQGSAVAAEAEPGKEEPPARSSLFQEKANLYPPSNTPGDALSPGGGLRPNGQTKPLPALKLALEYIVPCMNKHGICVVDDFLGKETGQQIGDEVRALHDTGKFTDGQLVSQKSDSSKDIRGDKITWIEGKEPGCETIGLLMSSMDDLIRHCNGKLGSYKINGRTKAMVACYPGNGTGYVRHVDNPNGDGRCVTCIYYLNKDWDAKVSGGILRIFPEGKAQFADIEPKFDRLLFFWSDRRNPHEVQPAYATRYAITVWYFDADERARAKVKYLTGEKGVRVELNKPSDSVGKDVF
row,SMILES,IC50 [nM]
1,O=C(NCc1ccc(C(F)(F)F)nc1)c1cnc(-n2cccn2)nc1O [Example 10],10 to 100
2,"O=C(NCc1ccc(F)cc1)c1cnc(-c2ccc(C(F)(F)F)cn2)nc1O [Example 11, N-(4-fluorobenzyl)-4-hydroxy-2-[5-(trifluoromethyl)pyridin-2-yl]pyrimidine-5-carboxamide]",1000 to 10000
3,"CC(NC(=O)c1cnc(-c2ccccn2)nc1O)c1ccc(F)cc1 (centres unmarked) [Example 12, N-[1-(4-fluorophenyl)ethyl]-4-hydroxy-2-pyridin-2-ylpyrimidine-5-carboxamide]",10 to 100
4,"COc1ccc(C(NC(=O)c2cnc(-c3ccccn3)nc2O)c2ccc(OC)cc2)cc1 [Example 14, N-[bis(4-methoxyphenyl)methyl]-4-hydroxy-2-pyridin-2-ylpyrimidine-5-carboxamide]",≤ 10
5,"Cc1cccc(-c2ncc(C(=O)NCc3ccc(-c4ccccc4)cc3)c(O)n2)n1 [Example 15, N-(biphenyl-4-ylmethyl)-4-hydroxy-2-(6-methylpyridin-2-yl)pyrimidine-5-carboxamide]",100 to 1000
6,"Cc1cccc(-c2ncc(C(=O)Nc3ccc(F)cc3Cl)c(O)n2)n1 [Example 16, N-(2-chloro-4-fluorophenyl)-4-hydroxy-2-(6-methylpyridin-2-yl)pyrimidine-5-carboxamide]",1000 to 10000
7,"Cc1cccc(-c2ncc(C(=O)NCc3ccc(Cl)cc3Cl)c(O)n2)n1 [Example 17, N-(2,4-dichlorobenzyl)-4-hydroxy-2-(6-methylpyridin-2-yl)pyrimidine-5-carboxamide]",100 to 1000
8,"O=C(NCc1ccc(F)cc1)c1cnc(-c2cnccn2)nc1O [Example 18, N-(4-fluorobenzyl)-4-hydroxy-2-pyrazin-2-ylpyrimidine-5-carboxamide]",100 to 1000
9,"CC(C)(NC(=O)c1cnc(-c2cnccn2)nc1O)c1ccccc1 [Example 19, 4-Hydroxy-N-(1-methyl-1-phenylethyl)-2-pyrazin-2-ylpyrimidine-5-carboxamide]",10 to 100
10,"O=C(NCc1ccc(C(F)(F)F)cc1)c1cnc(-c2cnccn2)nc1O [Example 20, 4-Hydroxy-2-pyrazin-2-yl-N-[4-(trifluoromethyl)benzyl]pyrimidine-5-carboxamide]",10 to 100
11,"O=C(NCc1ccc(F)cc1)c1cnc(-c2ncccn2)nc1O [Example 21, N-(4-fluorobenzyl)-4-hydroxy-2,2′-bipyrimidine-5-carboxamide]",1000 to 10000
12,"O=C(NCc1ccc(C(F)(F)F)cc1)c1cnc(-c2ncccn2)nc1O [Example 23, 4-Hydroxy-N-[4-(trifluoromethyl)benzyl]-2,2′-bipyrimidine-5-carboxamide]",100 to 1000
13,"O=C(NCc1ccccc1Cl)c1cnc(-c2cccnn2)nc1O [Example 24, N-(2-chlorobenzyl)-4-hydroxy-2-pyridazin-3-ylpyrimidine-5-carboxamide]",10 to 100
14,"C[C@H](NC(=O)c1cnc(-c2cccnn2)nc1O)c1ccc(Br)cc1 [Example 25, N-[(1S)-1-(4-bromophenyl)ethyl]-4-hydroxy-2-pyridazin-3-ylpyrimidine-5-carboxamide]",≤ 10
15,"O=C(NC1(c2ccccc2)CCCCC1)c1cnc(-c2cccnn2)nc1O [Example 27, 4-hydroxy-N-(1-phenylcyclohexyl)-2-pyridazin-3-ylpyrimidine-5-carboxamide]",≤ 10
16,"O=C(NCc1ccc(-c2ccccc2)cc1)c1cnc(-c2cccnn2)nc1O [Example 28, N-(biphenyl-4-ylmethyl)-4-hydroxy-2-pyridazin-3-ylpyrimidine-5-carboxamide]",≤ 10
17,"Cc1nc(-c2ncc(C(=O)NCc3ccc(C(F)(F)F)cc3)c(O)n2)cs1 [Example 29, 4-Hydroxy-2-(2-methyl-1,3-thiazol-4-yl)-N-[4-(trifluoromethyl)benzyl]pyrimidine-5-carboxamide]",10 to 100
18,"Cc1nc(-c2ncc(C(=O)NCc3ccc(-c4ccccc4)cc3)c(O)n2)cs1 [Example 30, N-(biphenyl-4-ylmethyl)-4-hydroxy-2-(2-methyl-1,3-thiazol-4-yl)pyrimidine-5-carboxamide]",10 to 100
19,"Cc1nc(-c2ncc(C(=O)NCc3ccc(OC(F)(F)F)cc3)c(O)n2)cs1 [Example 31, 4-Hydroxy-2-(2-methyl-1,3-thiazol-4-yl)-N-[4-(trifluoromethoxy)benzyl]pyrimidine-5-carboxamide]",100 to 1000
20,"Cc1nc(-c2ncc(C(=O)NCCc3ccc(F)cc3)c(O)n2)cs1 [Example 32, N-[2-(4-fluorophenyl)ethyl]-4-hydroxy-2-(2-methyl-1,3-thiazol-4-yl)pyrimidine-5-carboxamide]",100 to 1000
21,"Cc1nc(-c2ncc(C(=O)Nc3ccc(C(F)(F)F)cc3)c(O)n2)cs1 [Example 34, 4-Hydroxy-2-(2-methyl-1,3-thiazol-4-yl)-N-[4-(trifluoromethyl)phenyl]pyrimidine-5-carboxamide]",1000 to 10000

row,SMILES,IC50 [nM]
1,"CC[C@H](NC(=O)c1cnc(-c2csc(C)n2)nc1O)c1ccccc1 [Example 35, 4-Hydroxy-2-(2-methyl-1,3-thiazol-4-yl)-N-[(1S)-1-phenylpropyl]pyrimidine-5-carboxamide]",10 to 100
2,"CC[C@@H](NC(=O)c1cnc(-c2csc(C)n2)nc1O)c1ccccc1 [Example 36, 4-Hydroxy-2-(2-methyl-1,3-thiazol-4-yl)-N-[(1R)-1-phenylpropyl]pyrimidine-5-carboxamide]",10 to 100
3,"Cc1nc(-c2ncc(C(=O)NCc3ccc(Cl)cc3Cl)c(O)n2)cs1 [Example 37, N-(2,4-dichlorobenzyl)-4-hydroxy-2-(2-methyl-1,3-thiazol-4-yl)pyrimidine-5-carboxamide]",10 to 100
4,"Cc1nc(-c2ncc(C(=O)Nc3ccc(F)cc3Cl)c(O)n2)cs1 [Example 38, N-(2-chloro-4-fluorophenyl)-4-hydroxy-2-(2-methyl-1,3-thiazol-4-yl)pyrimidine-5-carboxamide]",100 to 1000
5,"Cc1nc(-c2ncc(C(=O)NC(c3ccccc3)c3ccccc3)c(O)n2)cs1 [Example 39, N-(diphenylmethyl)-4-hydroxy-2-(2-methyl-1,3-thiazol-4-yl)pyrimidine-5-carboxamide]",10 to 100
6,"Cc1nc(-c2ncc(C(=O)NC(C)(C)C)c(O)n2)cs1 [Example 40, N-(tert-butyl)-4-hydroxy-2-(2-methyl-1,3-thiazol-4-yl)pyrimidine-5-carboxamide]",100 to 1000
7,"CC[C@H](NC(=O)c1cnc(-c2nc(C)cs2)nc1O)c1ccccc1 [Example 41, 4-Hydroxy-2-(4-methyl-1,3-thiazol-2-yl)-N-[(1S)-1-phenylpropyl]pyrimidine-5-carboxamide]",100 to 1000
8,"Cc1nc(-c2ncc(C(=O)NCc3cccc(-c4ccccc4)c3)c(O)n2)cs1 [Example 42, N-(biphenyl-3-ylmethyl)-4-hydroxy-2-(2-methyl-1,3-thiazol-4-yl)pyrimidine-5-carboxamide]",10 to 100
9,"Cc1cc(C)n(-c2ncc(C(=O)NCc3ccc(OC(F)(F)F)cc3)c(O)n2)n1 [Example 44, 2-(3,5-Dimethyl-1H-pyrazol-1-yl)-4-hydroxy-N-[4-(trifluoromethoxy)benzyl]pyrimidine-5-carboxamide]",100 to 1000
10,"O=C(NC(c1ccccc1)c1ccccc1)c1cnc(-c2ccc[nH]2)nc1O [Example 45, N-(diphenylmethyl)-4-hydroxy-2-(1H-pyrrol-2-yl)pyrimidine-5-carboxamide]",100 to 1000
11,"O=C(NC(c1ccccc1)c1ccccc1)c1cnc(-n2cncn2)nc1O [Example 46, N-(diphenylmethyl)-4-hydroxy-2-(1H-1,2,4-triazol-1-yl)pyrimidine-5-carboxamide]",100 to 1000
12,"CC[C@H](NC(=O)c1cnc(-n2cccn2)nc1O)c1ccccc1 [Example 48, 4-Hydroxy-N-[(1S)-1-phenylpropyl]-2-(1H-pyrazol-1-yl)pyrimidine-5-carboxamide]",≤ 10
13,"O=C(NCc1ccc(Cl)cc1Cl)c1cnc(-n2cccn2)nc1O [Example 51, N-(2,4-dichlorobenzyl)-4-hydroxy-2-(1H-pyrazol-1-yl)pyrimidine-5-carboxamide]",≤ 10
14,"O=C(NCc1cccc(-c2ccccc2)c1)c1cnc(-n2cccn2)nc1O [Example 53, N-(biphenyl-3-ylmethyl)-4-hydroxy-2-(1H-pyrazol-1-yl)pyrimidine-5-carboxamide]",≤ 10
15,"O=C(NCc1ccc(C(F)(F)F)cc1)c1cnc(-n2cccn2)nc1O [Example 54, 4-Hydroxy-2-(1H-pyrazol-1-yl)-N-[4-(trifluoromethyl)benzyl]pynmidine-5-carboxamide]",≤ 10
16,"O=C(NCc1nc2ccccc2s1)c1cnc(-n2cccn2)nc1O [Example 55, N-(1,3-benzothiazol-2-ylmethyl)-4-hydroxy-2-(1H-pyrazol-1-yl)pyrimidine-5-carboxamide]",≤ 10
17,"O=C(NCc1cccc2ccccc12)c1cnc(-n2cccn2)nc1O [Example 56, 4-Hydroxy-N-(1-naphthylmethyl)-2-(1H-pyrazol-1-yl)pyrimidine-5-carboxamide]",10 to 100
18,"O=C(NC1CCc2ccccc21)c1cnc(-n2cccn2)nc1O (centres unmarked) [Example 57, N-(2,3-dihydro-1H-inden-1-yl)-4-hydroxy-2-(1H-pyrazol-1-yl)pyrimidine-5-carboxamide]",10 to 100
19,"O=C(NC(c1ccccc1)c1ccncc1)c1cnc(-n2cccn2)nc1O (centres unmarked) [Example 58, 4-Hydroxy-N-[phenyl(pyridin-4-yl)methyl]-2-(1H-pyrazol-1-yl)pyrimidine-5-carboxamide]",≤ 10
20,"O=C(NCc1ccc(Cl)nc1)c1cnc(-n2cccn2)nc1O [Example 59, N-[(6-chloropyridin-3-yl)methyl]-4-hydroxy-2-(1H-pyrazol-1-yl)pyrimidine-5-carboxamide]",10 to 100
